Peptide text beside a SMILES is read from it.
Legend:
[1] = system: pre-B-ALL G2 cells; assay: Cell toxicity assay (propidium iodide exclusion, flow cytometry); format: cell-based, human; details: 6 and 24 h, FIG. 1
Protocol: FIG. 1. […] G2 cells (1×10^6/ml) were cultured in 96-well flat-bottom wells in serum free IMDEM culture medium supplemented with L-glutamine and antibiotics, for 6 and 24 h at 37° C. with the indicated peptides. Untreated cells served as a control. After treatment, cells were stained with propidium iodide (PI) and its exclusion was analyzed by flow cytometry. Data shown are the percentage of Pr (dead) cells. Vertical bars represent standard deviation of duplicate experiments. *P<0.05 compared to untreated control.
Pre-B-ALL G2 cells and freshly isolated primary human CD3^+ T cells (1×10^6/ml) were cultured in 96-well flat-bottom wells in serum free IMDM or RPMI 1640 medium, respectively, both supplemented with L-glutamine and antibiotics, for 6 and 24 hrs at 37° C. (95% humidity, 5% CO2) with 10 μM, 100 μM or 1 mM of the peptides. Untreated cells served as a control. Cell viability was determined by propidium iodide (PI) exclusion by flow cytometry as described (Goichberg, P., et al., 2006).
In order to test cytotoxicity of the peptides, human pre-B-ALL G2 cells and freshly isolated primary human CD3^+ T cells (1×10^6/ml) were cultured in with 10 μM, 100 μM or 1 mM of TL-1, AK-1 and cyclic TL-1, as described in the Material and Methods. All tested peptides were not toxic for G2 cells (FIG. 1) as well as for primary human T cells at 10 μM and 100 μM. Even in the highest concentration, 1 mM, the peptides killed only 8-12% and 14-16% cells treated for 6 and 24 hrs, respectively, indicating a very low cytotoxicity of the peptides.

[2] = system: SDF-1; assay: SDF-1 plasma levels in injected mice (ELISA); format: in vivo, mouse; details: 5 mg/kg s.c., compared with mice injected with PBS
Protocol: (§1) SDF-1 levels in tested samples were determined by ELISA as described (Kalinkovich, A., et al., 2006) where the K15C monoclonal antibodies (mAb, INRA, Paris, France) recognizing the first three amino acids of SDF-1 were utilized as a capture Ab (10 μg/mL) in order to measure levels of intact, non-cleaved SDF-1. Levels of basic FGF (bFGF) and HGF in tested samples were determined by using corresponding capture mAbs and polyclonal biotynilated Abs (R&D Systems) as recommended by the manufacturer. In order to examine SDF-1, bFGF and HGF levels in cell supernatants, MS-5, MBA-15 and MG-63 cells were seeded in 24-well Costar wells and cultivated in RPMI 1640 or αMEM Eagle medium, respectively, with 10% FCS. When the cells reached confluence, the medium was changed to serum free medium and cells were cultivated for additional 6 hrs in the presence of various concentrations of the peptides. Medium samples were collected and centrifuged 10 min at 6000×g at 4° C. to remove cell debris. Supernatants were collected and kept at −70° C. until tested.

[3] = system: MG-63 cells; assay: SDF-1, bFGF and HGF secretion by stromal cells (ELISA of supernatants); format: cell-based, human; details: 10 μM, compared with untreated cells
Protocol: (§2) FIGS. 7A-7F. Effect of TL-1, AK-1 and cyclic TL-1 on SDF-1, bFGF and HGF secretion by different stromal cell lines. MS-5, MBA-15 and MG-63 cells were co-cultured with 10 μM TL-1, AK-1 or cyclic TL-1 in the serum free medium for 6 hrs, or without added peptide (UT). Levels of SDF-1 (A-C), bFGF (D) and HGF (E, F) were detected in the collected supernatants by ELISA. Data shown are the mean±SD of 2 separate experiments. *P<0.05 compared to control.
as §1, with “When the cells reached confluence, the medium was changed to serum free medium and cells were cultivated for additional 6 hrs in the presence of various concentrations of the peptides. Medium samples were collected and centrifuged 10 min at 6000×g at 4° C. to remove cell debris. Supernatants were collected and kept at −70° C. until tested.” left out
(§3) In order to examine the capability of the peptides to induce secretion of other proteins, the levels of Hepatocyte growth factor (HGF) and Basic fibroblast growth factor (bFGF) were detected in the same supernatants.

[4] = system: MBA-15 cells; assay: as above; format: cell-based, mouse; details: 10 μM, compared with untreated cells
Protocol: as §2, §1
(§4) Because BM stromal cells, such as endosteal bone lining osteoblasts and endothelial cells are the main source of human and murine SDF-1, the capability of the peptides to affect SDF-1 secretion by mouse stromal MS-5 and MBA-15 cells, and human osteoblast MG-63 cells was examined.
as §3

[5] = system: MS-5 cells; assay: as above; format: cell-based, mouse; details: 10 μM, compared with untreated cells
Protocol: as §2, §1, §4, §3

| Compound | cellular toxicity (percentage of PI+ dead cells) [1] | SDF-1 plasma levels [2] | levels of SDF-1 in supernatants [3] | levels of SDF-1 in supernatants [4] | levels of SDF-1 in supernatants [5] |
| --- | --- | --- | --- | --- | --- |
| N=C(N)NCCC[C@H](NC(=O)CNC(=O)[C@@H](N)CO)C(=O)N[C@@H](CCCCN)C(=O)N[C@@H](CS)C(=O)N[C@@H](CS)C(=O)N[C@@H](CCCNC(=N)N)C(=O)N[C@@H](CCCCN)C(=O)N[C@@H](CCCCN)C(=O)N[C@@H](CCCCN)C(=O)O [AK-1, SGRKCCRKKK] (H-SGRKCCRKKK-OH) | Low cellular toxicity | – | – | – | – |
| c1cc(CN2CCCNCCNCCCNCC2)ccc1CN1CCCNCCNCCCNCC1 [AMD3100, reference compound] | – | significant elevation | did not affect | did not affect | did not affect |
| N=C(N)NCCC[C@H](NC(=O)CNC(=O)[C@@H](N)CCCNC(=N)N)C(=O)N[C@@H](CCCCN)C(=O)N[C@@H](CS)C(=O)N[C@@H](CS)C(=O)N[C@@H](CCCNC(=N)N)C(=O)N[C@@H](CCCNC(=N)N)C(=O)N[C@@H](CCCCN)C(=O)N[C@@H](CCCCN)C(=O)O [TL-1, RGRKCCRRKK] (H-RGRKCCRRKK-OH) | Low cellular toxicity | – | – | – | – |

Reference: patent US9567371B2, “Short beta-defensin-derived peptides” (Yeda Research and Development Co. Ltd., priority 2009, dated 2017)
